Measured values as given in patent publication US7608630B2, “Marasmius androsaceus L.es Fr extract, piperidone derivative, and their use for the preparation of hypertensives” (Hainan Yangpu New Special Pharmaceutical Co., Ltd., priority 2004, dated 2009).
“And” between values parts separate entries of the source, which are not always exact repeats. Equal entries are not always repeated.

What was measured:
[1] = tested on: ileum smooth muscle of guinea pig; test: Effects on ileum smooth muscle of guinea pig (automatic rhythmic contraction of isolated ileum section)
Procedure: The section was clamped at its both ends with frog heart clips, and placed in a perfusion tank with the lower end being fixed at the bottom of the tank and the top end being connected by a thread to a tensile transducer of a two-way electrophysiolograph, so that the automatic rhythmic contraction of the ileum section was recorded. The Tai's nutrient solution in the tank was kept at a temperature of 35° C., into which pure […] was bubbled. […] The normal contraction curve of the ileum section was firstly recorded using isoprenaline as a positive control.

[2] = tested on: aorta smooth muscle of rabbit; test: Effects on aorta of rabbit (contraction of isolated aorta section caused by adrenalin); set-up: species or system New Zealand rabbit
Procedure: A New Zealand rabbit was beheaded and unconscious. After thoracotomy, its thoracic aorta was quickly taken out, and quickly placed in and flushed with a pre-cooled LOCK's solution (which comprised of 1000 ml water, 9 g NaCl, 0.35 g KCl, 0.35 g MgSO4.7H2O, 0.16 g KH2PO4, and 1 g NaHCO3) to remove bloodiness. The connective tissue outside the blood vessel was carefully cut off, and an aorta section of 2-3 mm wide at an angle of 45° relative to the vessel was taken for use in the following test.
The aorta section of 2 cm long was clamped at its both ends with frog heart clips, and put in a thermostatic perfusion tank of 38° C. with the lower end being fixed at the bottom of the tank and the top end being connected by a thread to a tensile transducer of a two-way electrophysiolograph. Oxygen was bubbled to the solution in the perfusion tank, and the contraction force of the aorta section was recorded after balancing it in the solution for 80 min. During which, the LOCK's solution was changed once per 20 min. After adding 1.2×10^−6 mg/ml adrenalin to the solution, the contraction curve of the aorta section was recorded.

[3] = tested on: blood pressure of SHR rat; test: Reduction of blood pressure of anesthetized SHR rat; type: in vivo, spontaneously hypertensive rat (SHR); conditions: SHR rat; for Diastolic pressure / Systolic pressure: 10 mg/kg intravenous; for reduction of systolic pressure and diastolic pressure: dosage range 10-200 mg/kg, intravenous
Procedure: (§1) A spontaneously hypertensive rat (SHR) was anesthetized with 40 mg/ml pentobarbital, and fixed by its back on an experimental stand. The skin at its neck was cut open after removing hair, and thereafter the right common carotid artery was separated with its proximal end being clamped by a artery clamp and its axifugal end being ligated by a thread. A V-shape cut was made with scissors at the axifugal end, into which an arterial cannula filled with heparin physiological saline was inserted. The arterial cannula was connected with a blood pressure transducer, and then the blood pressure transducer was connected to a computer-controlled three-way physiological-pharmacological recorder. The right femoral vein of the rat was separated and intubated for the injection of a drug. When the blood pressure became stable (i.e., the blood pressure contraction curve became straight), the rat was administered by intravenous route.

blood pressure of cats = test: Reduction of blood pressure of cat; type: in vivo; conditions: cats, 10 mg/kg o.s; for Diastolic pressure, Animal 1-4 individually / Systolic pressure, Animal 1-4 individually / Systolic pressure, Animal 3-4 individually: 10 mg/kg
Procedure: as §1
Five cats of 2.5-3.2 kg were administered orally and intravenously respectively according to the method in Example 8, and then their systolic pressure and diastolic pressure were determined using normal cats non-administered as a control group.

[4] = 10 min after administration (Table 9)
[5] = 20 min after administration (Table 9)
[6] = 30 min after administration (Table 9)
[7] = 40 min after administration (Table 9)
[8] = 50 min after administration (Table 9)
[9] = 60 min after administration (Table 9)
[10] = 90 min after administration (Table 9)
[11] = 120 min after administration (Table 9)
[12] = 150 min after administration (Table 9)
[13] = 180 min after administration (Table 9)
[14] = before administration (Table 9)

## CC(C)NCC(O)c1ccc(O)c(O)c1 (stereo not drawn) [Isoprenaline, reference compound]
[1]; concentration 5 × 10^−5 mg/ml
  Relaxation Time: 0.3 h
  Time of taking effect: 16 min
[1]; concentration 5×10^−5 mg/ml, control
  time after flushing at which the inhibited contraction is resumed: 20 min
[2]; concentration 1.2 × 10^−6 mg/ml
  Time of taking effect: 16 min
[2]; concentration 1.2 × 10^−6 mg/ml, relative to original adrenalin contraction
  Contraction force: 1

## CCN1CC(C)(C)C(=O)C(C)(C)C1 [Compound of formula Ia, 1-ethyl-3,3,5,5-tetramethyl-4-piperidone]
[2]; concentration 1 × 10^−4 mg/ml
  Time of taking effect: 3 min
[2]; concentration 1 × 10^−4 mg/ml, 10 min, then adrenalin 1.2×10^−6 mg/ml, relative to original value
  Contraction force: 0.3
[2]; concentration range 5×10^−3-1×10^−4 mg/ml
  reduction of the contraction of aorta section caused by adrenalin: could obviously reduce the contraction of aorta section caused by adrenalin
[2]; sample 10 min, then adrenalin 1.2×10^−6 mg/ml, stated for the three samples together
  contraction force resumed by adrenalin, fraction of the original value: ½-⅓

## CC1(C)CNCC(C)(C)C1=O.Cl [3,3,5,5-tetramethyl-4-piperidone hydrochloride]
[3]; 5 min after administration
  Diastolic pressure: 109 ± 13 mm/Hg
  Systolic pressure: 139 ± 19 mm/Hg
[3]; 60 min after administration
  Diastolic pressure: 89 ± 12 mm/Hg
  Systolic pressure: 123 ± 11 mm/Hg
[3]; 120 min after administration
  Diastolic pressure: 80 ± 23 mm/Hg
  Systolic pressure: 129 ± 17 mm/Hg
[3]; 240 min after administration
  Diastolic pressure: 112 ± 16 mm/Hg
  Systolic pressure: 169 ± 14 mm/Hg
[3]; before administration
  Diastolic pressure: 119 ± 15 mm/Hg
  Systolic pressure: 170 ± 9.3 mm/Hg
[3]
  reduction of systolic pressure and diastolic pressure: could obviously reduce the systolic pressure and diastolic pressure of SHR rat

## CC1(C)CNCC(C)(C)C1O [Compound of formula Ib, 3,3,5,5-tetramethyl-4-piperidanol]
[1]; concentration 1 × 10^−4 mg/ml
  Relaxation Time: 5 h
  Time of taking effect: 3 min
[1]; different concentrations
  inhibition of the automatic rhythmic contraction of the ileum section: could inhibit the automatic rhythmic contraction of the ileum section
[3]; 5 min after administration
  Systolic pressure: 140 ± 19 mm/Hg
[3]; 60 min after administration
  Diastolic pressure: 88 ± 10 mm/Hg
  Systolic pressure: 121 ± 15 mm/Hg
[3]; 120 min after administration
  Diastolic pressure: 89 ± 8.9 mm/Hg
  Systolic pressure: 126 ± 16 mm/Hg
[3]; 240 min after administration
  Diastolic pressure: 107 ± 9.2 mm/Hg
  Systolic pressure: 162 ± 11 mm/Hg
[3]; before administration
  Diastolic pressure: 125 ± 17 mm/Hg
  Systolic pressure: 178 ± 13 mm/Hg
[3]
  reduction of systolic pressure and diastolic pressure: could obviously reduce the systolic pressure and diastolic pressure of SHR rat
Blood pressure of cats; [4]
  Average Diastolic pressure: 106.75 mmHg
  Average Systolic pressure: 141.75 mmHg
  Diastolic pressure, Animal 1-4 individually: 119 mmHg and 105 mmHg and 100 mmHg and 103 mmHg
  Systolic pressure, Animal 1-4 individually: 136 mmHg and 139 mmHg and 145 mmHg and 147 mmHg
Blood pressure of cats; [5]
  Average Diastolic pressure: 104.25 mmHg
  Average Systolic pressure: 140 mmHg
  Diastolic pressure, Animal 1-4 individually: 135 mmHg and 89 mmHg (2×) and 104 mmHg
  Systolic pressure, Animal 1-4 individually: 146 mmHg and 125 mmHg and 153 mmHg and 136 mmHg
Blood pressure of cats; [6]
  Average Diastolic pressure: 104.75 mmHg
  Average Systolic pressure: 140.5 mmHg
  Diastolic pressure, Animal 1-4 individually: 130 mmHg and 90 mmHg (2×) and 109 mmHg
  Systolic pressure, Animal 1-4 individually: 146 mmHg and 126 mmHg and 154 mmHg and 136 mmHg
Blood pressure of cats; [7]
  Average Diastolic pressure: 102.25 mmHg
  Average Systolic pressure: 139 mmHg
  Diastolic pressure, Animal 1-4 individually: 126 mmHg and 91 mmHg and 102 mmHg and 90 mmHg
  Systolic pressure, Animal 1-4 individually: 140 mmHg and 126 mmHg and 154 mmHg and 136 mmHg
Blood pressure of cats; [8]
  Average Diastolic pressure: 103 mmHg
  Average Systolic pressure: 136.5 mmHg
  Diastolic pressure, Animal 1-4 individually: 126 mmHg and 96 mmHg and 103 mmHg and 87 mmHg
  Systolic pressure, Animal 1-4 individually: 136 mmHg and 130 mmHg (2×) and 150 mmHg
Blood pressure of cats; [9]
  Average Diastolic pressure: 109 mmHg
  Average Systolic pressure: 138 mmHg
  Diastolic pressure, Animal 1-4 individually: 123 mmHg and 97 mmHg and 102 mmHg and 114 mmHg
  Systolic pressure, Animal 1-4 individually: 140 mmHg and 122 mmHg and 152 mmHg and 138 mmHg
Blood pressure of cats; [10]
  Average Diastolic pressure: 109.25 mmHg
  Average Systolic pressure: 141.75 mmHg
  Diastolic pressure, Animal 1-4 individually: 125 mmHg and 95 mmHg and 110 mmHg and 107 mmHg
  Systolic pressure, Animal 1-4 individually: 135 mmHg and 130 mmHg and 156 mmHg and 146 mmHg
Blood pressure of cats; [11]
  Average Diastolic pressure: 116.75 mmHg
  Average Systolic pressure: 151.5 mmHg
  Diastolic pressure, Animal 1-4 individually: 131 mmHg and 94 mmHg and 115 mmHg and 127 mmHg
  Systolic pressure, Animal 1-4 individually: 146 mmHg and 131 mmHg and 165 mmHg and 164 mmHg
Blood pressure of cats; [12]
  Average Diastolic pressure: 116.75 mmHg
  Average Systolic pressure: 155.25 mmHg
  Diastolic pressure, Animal 1-4 individually: 132 mmHg and 98 mmHg and 117 mmHg and 120 mmHg
  Systolic pressure, Animal 1-4 individually: 145 mmHg and 139 mmHg and 166 mmHg and 171 mmHg
Blood pressure of cats; [13]
  Average Diastolic pressure: 118.5 mmHg
  Average Systolic pressure: 158.5 mmHg
  Diastolic pressure, Animal 1-4 individually: 133 mmHg and 97 mmHg and 113 mmHg and 131 mmHg
  Systolic pressure, Animal 1-4 individually: 152 mmHg and 142 mmHg and 160 mmHg and 180 mmHg
Blood pressure of cats; 210 min after administration (Table 9)
  Systolic pressure, Animal 3-4 individually: 156 mmHg and 186 mmHg
Blood pressure of cats; 210 min after administration (Table 9; two animals)
  Average Systolic pressure: 171 mmHg
Blood pressure of cats; 240 min after administration (Table 9)
  Systolic pressure, Animal 3-4 individually: 155 mmHg and 202 mmHg
Blood pressure of cats; 240 min after administration (Table 9; two animals)
  Average Systolic pressure: 178.5 mmHg
Blood pressure of cats; [14]
  Average Diastolic pressure: 140 mmHg
  Average Systolic pressure: 195.25 mmHg
  Diastolic pressure, Animal 1-4 individually: 134 mmHg and 156 mmHg and 116 mmHg and 154 mmHg
  Systolic pressure, Animal 1-4 individually: 150 mmHg and 209 mmHg and 185 mmHg and 237 mmHg
